How the values were obtained:
p3TP Lux mink lung cells = test: TGF-β-dependent luciferase assay in mink lung cells; type: cell-based; conditions: read-out: p3TP lux, IC50; Mean values ± SEM for a minimum of three determinations (n); data on file
NIH3T3 = test: Growth inhibition in mouse fibroblasts; type: cell-based; conditions: read-out: NIH3T3, IC50; Mean values ± SEM for a minimum of three determinations (n); data on file
p38MAPK = p38MAPK (Homo sapiens, UniProt Q16539); test: p38MAPK inhibition, single-point determination; type: biochemical; conditions: read-out: p38MAPK, IC50, data on file
TGF-βR-I kinase domain = target: T1, TGF-βR-I kinase domain (Homo sapiens, UniProt P36897, T204D); test: Ki of Eli Lilly TGF-β SMIs; type: biochemical; conditions: data on file, Eli Lilly and Company
T1 sequence (P36897 148-503 T204D limits assumed): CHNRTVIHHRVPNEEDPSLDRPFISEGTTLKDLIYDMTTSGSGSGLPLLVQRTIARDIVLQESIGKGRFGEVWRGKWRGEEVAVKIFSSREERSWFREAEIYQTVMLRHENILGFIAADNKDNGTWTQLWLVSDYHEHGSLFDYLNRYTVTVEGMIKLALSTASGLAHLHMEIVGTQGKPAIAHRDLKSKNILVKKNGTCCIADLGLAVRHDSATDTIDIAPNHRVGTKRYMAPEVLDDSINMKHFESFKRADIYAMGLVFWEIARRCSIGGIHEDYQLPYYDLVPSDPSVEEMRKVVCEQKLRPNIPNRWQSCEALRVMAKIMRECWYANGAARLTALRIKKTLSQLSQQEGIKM

lung fibrosis = conditions: administration before, during, and after radiation treatment; cited from earlier work
Half-life in dog = type: in vivo
NSCLC cell lines = conditions: cited from earlier work
Half-life in rat = type: in vivo
MDAPCa2b and PC-3 = conditions: cited from earlier work
PDX of melanoma = conditions: cited from earlier work
Half-life in mice = conditions: mouse, in vivo
[1] = patients; cited from earlier work
[2] = test system: cell lines that had no T790M mutation; conditions: cell lines without T790M mutation; cited from earlier work
[3] = test system: pSMAD2 in glioblastoma cell lines; conditions: lomustine by itself; cited from earlier work
[4] = one patient with malignant melanoma; doses up to 15 mg/kg; cited from earlier work
[5] = 13 patients, 3 mg/kg every 21 days; cited from earlier work

Sequence of p38MAPK (Q16539 whole entry, the tested form may be a part): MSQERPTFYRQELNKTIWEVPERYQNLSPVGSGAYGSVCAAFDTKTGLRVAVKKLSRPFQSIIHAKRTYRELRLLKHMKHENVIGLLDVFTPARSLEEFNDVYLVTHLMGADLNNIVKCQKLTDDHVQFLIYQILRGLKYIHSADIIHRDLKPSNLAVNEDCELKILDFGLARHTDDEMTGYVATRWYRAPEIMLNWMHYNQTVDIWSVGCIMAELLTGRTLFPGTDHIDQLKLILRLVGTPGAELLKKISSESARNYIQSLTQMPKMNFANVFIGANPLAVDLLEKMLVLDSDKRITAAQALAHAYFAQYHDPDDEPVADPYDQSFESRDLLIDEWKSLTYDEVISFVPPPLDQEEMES

Cc1cccc(-c2nn3c(c2-c2ccc(F)cc2)CCC3)n1 [LY580276]
IC50 (p3TP Lux mink lung cells): 96 ± 16 nM | IC50 (NIH3T3): 339 ± 349 nM | IC50 (p38MAPK): > 20000 nM | Ki (TGF-βR-I kinase domain): 37 nM

c1ccc(-c2nn3c(c2-c2ccnc4cc(OCCN5CCOCC5)ccc24)CCC3)nc1 [LY2109761]
lung fibrosis (lung fibrosis): inhibited lung fibrosis | IC50 (p3TP Lux mink lung cells): 180 ± 93 nM | IC50 (NIH3T3): 210 ± 170 nM | Half-life mean (Half-life in dog; Dog, data on file): 60 to 120 min | metastatic spread (NSCLC cell lines): reduced metastatic spread | Half-life mean (Half-life in rat; Rat, data on file): 108 min | antitumor activity, bone metastasis (MDAPCa2b and PC-3): inhibiting bone metastasis

Cc1cccc(-c2nn3c(c2-c2ccnc4ccc(C(N)=O)cc24)CCC3)n1 [Galunisertib (LY2157299)]
half-life (Half-life in dog; dog, in vivo): 136 min | pSMAD2 (PDX of melanoma; PDX of melanoma): inhibited | growth inhibitory effect (PDX of melanoma; standard tumor colony assay, melanoma PDX): no growth inhibitory effect | half-life (Half-life in rat; rat, in vivo): 31.8 min | half-life (Half-life in mice): 18 min | drug-related Grade 3/4 toxicities [1]: < 5%

c1ccc(-c2[nH]ncc2-c2ccnc3ccccc23)nc1 [LY364947]
IC50 (p3TP Lux mink lung cells): 47 ± 16 nM | IC50 (NIH3T3): 89 ± 10 nM | IC50 (p38MAPK): 740 nM | EGFR resistance [2]: able to overcome the EGFR resistance

O=NN(CCCl)C(=O)NC1CCCCC1 [lomustine]
pSMAD2 [3]: reduced pSMAD2

fresolimumab: pan-TGF-β ligand monoclonal antibody
duration of partial response [4]: 44.4 weeks | radiographic responses [5]: None of the patients had radiographic responses
